Values joined by “and” are separate entries in the source; they are usually repeats but may differ in a detail not shown here. Equal entries are not always repeated. Peptide text beside a SMILES is read from it. * marks the point of attachment. FITC = O=C1OC2(c3ccc(O)cc3Oc3cc(O)ccc32)c2ccc(NC(=S)*)cc21
Columns and labels:
P. capsici α, β-tubulin [1] = experiment: ELISA binding affinity of phages displaying tubulin-binding peptides (anti-M13 antibody); set-up: species or system Phytophthora capsici; conditions: phage displaying the peptide, 5 μg tubulin per well, OD 450 nm
Method: Phage display was conducted with the M13 phage library in an effort to identify specific binding peptides to α, β-tubulin proteins from P. capsici. After five rounds of biopanning toward each target protein, 169 phage clones for α-tubulin and 112 for β-tubulin were selected. […] Testing was done for all the phages with different sequences to estimate their binding affinities for α, β-tubulins of P. capsici.
Phages displaying α, β-tubulin binding peptides were prepared, and their concentrations were determined by measurement of plaque-forming units (pfu) per volume. The binding affinities of phages displaying α, β-tubulin binding peptides were determined by the ELISA method, as described previously. Briefly, α, β-tubulin binding peptides were added in a concentration-dependent manner to a 96-well plate containing α, β-tubulin protein (5 μg per well), as indicated. The wells were then washed 10 times with 1X TBST (50 mM Tris-HCl, pH 7.5, 150 mM NaCl, and 0.1% Tween-20), followed by probing with an anti-M13 antibody (mouse monoclonal antibody, 1:5000 in 1X TBST, 0.2 μg·ml^−1; Amersham Bioscience, Little Chalfont, UK) for 1 h at room temperature. After washing five times with 1 X TBST buffer, anti-mouse IgG-horseradish peroxidase (HRP) conjugate was added, and the mixture was incubated for 1 h, followed by a color-developing reaction with tetramethylbenzidine (TMB) substrate solution ([TMB]/H2O2; Chemicon, Billerica, MA, USA). After 15 min, the reaction was terminated by the addition of 1 M H2SO4, and the optical densities were measured at 450 nm with a Biotrak multiwall plate reader (Amersham Bioscience).

[2] = target: T1, P. capsici α, β-tubulin microtubule polymerization (Phytophthora capsici, UniProt A4ZYP2+A4ZYP4); experiment: Inhibition of microtubule polymerization by phages (turbidity at 350 nm); type: biochemical; conditions: phage 10 nM, 40 min reaction time
Method: As a next step, all 15 phages were used to determine whether the phages could inhibit the activity of microtubule polymerization of P. capsici. The concentration of each phage was constant at 10 nM, and the polymerization was measured after 40 min of reaction time.
(§1) The polymerization and inhibition of microtubule assembly were studied using a spectroscopic method. Purified α, β-tubulins were mixed with 120 μL of polymerization buffer (80 mM PIPES (pH 7.4), 1 mM EGTA, 1 mM MgCl2, and 5% v/v glycerol) to a final concentration of 0.5 mg/mL total tubulin in 300 μL final reaction mixture. The polymerization assay was initiated with the addition of 2.5 mM GTP, and the reaction was continued until it reached the saturation point for 40 min. The contents were mixed, and the resulting turbidity due to microtubule formation was measured at 350 nm using an Optizen 2120 UV spectrophotometer. […] Furthermore, the polymerization and inhibition of microtubule formation were also confirmed through sodium dodecyl sulfate–polyacrylamide gel electrophoresis (SDS-PAGE), Western blot, and transmission electron microscopy (TEM). For the TEM analysis, samples were prepared according to the protocol reported by Vulevic et al.. Briefly, 30 μL of the saturated product of the polymerization reaction was immediately diluted with 10 μL of 0.4% glutaraldehyde, and the mixture was incubated for 3 min at room temperature. Then, 10 μL of the solution was applied to a 200 mesh, copper/formvar-coated grid (EMS) for 1 min, which was sequentially washed using two drops of dH2O and stained for 2 min with a drop of 2% uranyl acetate. Excess stain was removed by blotting with filter paper. Samples were air-dried and later viewed under a TEM.

P. capsici α, β-tubulin [3] = experiment: Fluorometric binding affinity of FITC-labeled synthetic peptides; set-up: species or system Phytophthora capsici; conditions: FITC-labeled peptide, immobilised tubulin in 96-well plate, 2 h, ex 495 / em 520 nm
Description: These peptides were synthesized with FITC-label for detection of the difference in the fluorescence by the absence and presence of target binding using a fluorescence microplate reader (see the Materials and Methods).
(§2) Peptides were synthesized by AnyGen Inc. (Gwangju, Korea). To prevent unintended interaction with other molecules, the peptides used in this study were modified by acetylation at the N-terminus and amidation at the C-terminus. With the addition of a lysine residue, the peptides were labeled with FITC at the C-terminus. This labeling was used for the identification of the target binding property by means of fluorescence detection. The purity of the synthesized peptides was greater than 90%, as assessed by HPLC. The peptides were further characterized to estimate their binding affinity and specificity. Briefly, serial dilutions of FITC-labeled peptides were incubated with α, β-tubulin proteins immobilized on a 96-well plate for 2 h. The binding affinities of the FITC-labeled peptides were determined by a fluorescence microplate reader (Molecular Devices, Sunnyvale, CA, USA) using the soft Max V5 system, with excitation at 495 nm and emission at 520 nm. The specificities of identified peptides for the target proteins were evaluated using the same fluorometric method described above, incorporating homologous H. sapiens α, β-tubulin. BSA protein was used as a negative control.

H. sapiens α, β-tubulin = experiment: Fluorometric binding affinity of FITC-labeled synthetic peptides (specificity); conditions: FITC-labeled peptide, immobilised tubulin in 96-well plate, 2 h, ex 495 / em 520 nm
Description: Investigation of the binding affinity for α, β-tubulins of H. sapiens to the synthesized peptides is necessary because peptide binding to H. sapiens tubulins could trigger severe toxicity in humans. First, α, β-tubulins of H. sapiens were individually overexpressed and purified (Figure 1). […] In addition, bovine serum albumin (BSA) was used as another control to confirm the specificity of the synthesized peptides. No significant binding fluorescence intensities for BSA were detected.
as §2

[4] = target: T1, P. capsici α, β-tubulin microtubule polymerization; experiment: biochemical
Method: The IC50 values of the four synthetic peptides were determined by fitting the relative inhibition data via the below Equation (1), where V0 is the reaction rate without inhibitor, Vf is the rate at saturation inhibition, and [I] is the inhibitor concentration. (1) V=(V0−Vf)×IC50/IC50+[I]+Vf
as §1

[5] = system: H. sapiens α, β-tubulin microtubule polymerization; experiment: Microtubule polymerization inhibition assay with synthetic peptides (turbidity at 350 nm); type: biochemical; conditions: 0.5 mg/mL total tubulin, 2.5 mM GTP, 40 min
Description: (1) V=(V0−Vf)×IC50/IC50+[I]+Vf
Excess stain was removed by blotting with filter paper.

[6] = cited from earlier work
Description: In the past decade, several new chemical classes which display potent antifungal activity targeting fungal α, β-tubulin have been developed such as zoxamide, inhibiting β-tubulin in Phytophthora sojae (P. sojae); methyl benzimidazole carbamate, (MBC) inhibiting β-tubulin in Podosphaera xanthii (P. xanthii); and benomyl. One of these microtubule-targeted fungicides is benomyl. In the presence of benomyl, the polymerization of tubulin to microtubules is inhibited resulting in retarded cell division.

P. capsici microtubules = experiment: TEM analysis of polymerized microtubules; type: biochemical, Phytophthora capsici; conditions: polymerized for 40 min
Method: as §1, with “Excess stain was removed by blotting with filter paper. Samples were air-dried and later viewed under a TEM.” left out

T1 sequence (A4ZYP4 1-453): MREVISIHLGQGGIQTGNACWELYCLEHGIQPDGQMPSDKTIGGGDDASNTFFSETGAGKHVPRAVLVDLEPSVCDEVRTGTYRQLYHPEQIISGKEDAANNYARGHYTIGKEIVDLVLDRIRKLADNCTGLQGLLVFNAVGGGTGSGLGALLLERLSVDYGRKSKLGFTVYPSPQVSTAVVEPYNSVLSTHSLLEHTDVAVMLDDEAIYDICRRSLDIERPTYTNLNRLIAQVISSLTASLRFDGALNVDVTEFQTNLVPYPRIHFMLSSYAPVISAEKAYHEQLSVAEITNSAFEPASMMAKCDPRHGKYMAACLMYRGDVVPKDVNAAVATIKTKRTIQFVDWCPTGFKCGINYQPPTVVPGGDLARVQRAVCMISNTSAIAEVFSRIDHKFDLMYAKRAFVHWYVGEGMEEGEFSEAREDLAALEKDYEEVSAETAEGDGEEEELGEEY
T1 sequence (A4ZYP2 1-446): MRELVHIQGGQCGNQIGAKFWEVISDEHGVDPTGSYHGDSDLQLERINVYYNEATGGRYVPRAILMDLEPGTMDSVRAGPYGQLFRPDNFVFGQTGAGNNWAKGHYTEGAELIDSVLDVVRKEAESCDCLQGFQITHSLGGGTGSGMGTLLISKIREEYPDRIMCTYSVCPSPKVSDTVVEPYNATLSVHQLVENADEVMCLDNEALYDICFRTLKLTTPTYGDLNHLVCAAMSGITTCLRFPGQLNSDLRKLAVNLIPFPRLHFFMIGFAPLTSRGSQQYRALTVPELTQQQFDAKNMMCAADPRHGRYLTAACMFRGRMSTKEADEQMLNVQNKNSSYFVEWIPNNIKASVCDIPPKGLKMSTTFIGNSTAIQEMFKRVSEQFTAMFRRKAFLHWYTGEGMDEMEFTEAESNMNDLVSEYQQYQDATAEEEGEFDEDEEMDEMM

LMNPATMKTSSG [α_P7, M13 phage clone displaying 12-mer […], selected against P. capsici α-tubulin]
Kd (P. capsici α, β-tubulin [1]): 0.36 ± 0.00187 nM

CC(=O)N[C@@H](CC(N)=O)C(=O)N[C@@H](Cc1c[nH]cn1)C(=O)N[C@@H](Cc1ccccc1)C(=O)N[C@H](C(=O)N1CCC[C@H]1C(=O)N[C@H](C(=O)N[C@@H](CO)C(=O)N[C@@H](CC(N)=O)C(=O)N[C@@H](CCCNC(=N)N)C(=O)N[C@@H](Cc1ccccc1)C(=O)N[C@@H](CC(N)=O)C(=O)N[C@@H](C)C(=O)N[C@@H](CCCCNC(=S)Nc1ccc2c(c1)C(=O)OC21c2ccc(O)cc2Oc2cc(O)ccc21)C(N)=O)[C@@H](C)O)C(C)C [α_P3] (Ac-NHFVPTSNRFNAK(FITC)-NH2)
Kd (P. capsici α, β-tubulin [1]): 0.12 ± 0.00123 nM | percent inhibition of microtubule polymerization [2]: 32% | Kd (P. capsici α, β-tubulin [3]): 79.2 ± 6.8 nM | Kd (H. sapiens α, β-tubulin): 162 ± 8.1 nM | IC50 [4]: 1240 nM | IC50 [5]: 4110 nM

SYNTFMYERASK [α_P11, M13 phage clone displaying 12-mer […], selected against P. capsici α-tubulin]
Kd (P. capsici α, β-tubulin [1]): 0.562 ± 0.00169 nM

CCCCNC(=O)n1c(NC(=O)OC)nc2ccccc21 [benomyl]
solubility in water [6]: low solubility

CC(=O)N[C@H](C(=O)N[C@@H](CC(N)=O)C(=O)N1CCC[C@H]1C(=O)N[C@@H](CCC(N)=O)C(=O)N[C@@H](C)C(=O)N[C@@H](CCCNC(=N)N)C(=O)N[C@@H](Cc1c[nH]c2ccccc12)C(=O)N[C@@H](Cc1c[nH]cn1)C(=O)N[C@@H](CCC(=O)O)C(=O)N[C@@H](Cc1ccc(O)cc1)C(=O)N[C@@H](CC(N)=O)C(=O)N[C@@H](Cc1ccccc1)C(=O)N[C@@H](CCCCNC(=S)Nc1ccc2c(c1)C(=O)OC21c2ccc(O)cc2Oc2cc(O)ccc21)C(N)=O)[C@@H](C)O [β_P1] (Ac-TNPQARWHEYNFK(FITC)-NH2)
Kd (P. capsici α, β-tubulin [1]): 0.0419 ± 0.00105 nM | percent inhibition of microtubule polymerization [2]: 21% | Kd (P. capsici α, β-tubulin [3]): 49.7 ± 2.9 nM | Kd (H. sapiens α, β-tubulin): 455 ± 50.7 nM | IC50 [4]: 6910 nM

KVYAINSWTNYY [α_P13, M13 phage clone displaying 12-mer […], selected against P. capsici α-tubulin]
Kd (P. capsici α, β-tubulin [1]): 1.2 ± 0.0902 nM

SSHNHDSYHGTK [α_P6, M13 phage clone displaying 12-mer […], selected against P. capsici α-tubulin]
Kd (P. capsici α, β-tubulin [1]): 0.476 ± 0.00273 nM

TNTSWDPQYNPD [α_P8, M13 phage clone displaying 12-mer […]; (so in the source), selected against P. capsici α-tubulin]
Kd (P. capsici α, β-tubulin [1]): 0.0476 ± 0.00251 nM | percent inhibition of microtubule polymerization [2]: 4%

IGNSWPLTSHSW [α_P10, M13 phage clone displaying 12-mer […], selected against P. capsici α-tubulin]
Kd (P. capsici α, β-tubulin [1]): 0.144 ± 0.0011 nM

MVHSKASMWPGK [α_P12, M13 phage clone displaying 12-mer […], selected against P. capsici α-tubulin]
Kd (P. capsici α, β-tubulin [1]): 0.69 ± 0.00227 nM

CC[C@H](C)[C@H](NC(C)=O)C(=O)N[C@H](C(=O)N[C@@H](CCSC)C(=O)N[C@@H](CO)C(=O)N[C@H](C(=O)N1CCC[C@H]1C(=O)N[C@@H](C)C(=O)N[C@@H](Cc1c[nH]cn1)C(=O)N[C@@H](CC(N)=O)C(=O)N[C@@H](C)C(=O)N[C@@H](CCCCN)C(=O)N[C@@H](CCC(=O)O)C(=O)N[C@@H](CCCCNC(=S)Nc1ccc2c(c1)C(=O)OC21c2ccc(O)cc2Oc2cc(O)ccc21)C(N)=O)C(C)C)[C@@H](C)O [α_P1] (Ac-ITMSVPAHNAKEK(FITC)-NH2)
Kd (P. capsici α, β-tubulin [1]): 0.0342 ± 0.00211 nM | percent inhibition of microtubule polymerization [2]: 28% | Kd (P. capsici α, β-tubulin [3]): 69.5 ± 6.4 nM | Kd (H. sapiens α, β-tubulin): 134 ± 48.8 nM | IC50 [4]: 2690 nM

NFTINGKTHRLW [α_P4]
Kd (P. capsici α, β-tubulin [1]): 0.298 ± 0.00145 nM | percent inhibition of microtubule polymerization [2]: 19%

CC(=O)N[C@H](C(=O)N[C@@H](CC(N)=O)C(=O)N[C@H](C(=O)N[C@@H](CO)C(=O)N[C@@H](Cc1c[nH]c2ccccc12)C(=O)N[C@@H](CC(=O)O)C(=O)N1CCC[C@H]1C(=O)N[C@@H](CCC(N)=O)C(=O)N[C@@H](Cc1ccc(O)cc1)C(=O)N[C@@H](CC(N)=O)C(=O)N1CCC[C@H]1C(=O)N[C@@H](CC(=O)O)C(=O)N[C@@H](CCCCNC(=S)Nc1ccc2c(c1)C(=O)OC21c2ccc(O)cc2Oc2cc(O)ccc21)C(N)=O)[C@@H](C)O)[C@@H](C)O [α_P2] (Ac-TNTSWDPQYNPDK(FITC)-NH2)
Kd (P. capsici α, β-tubulin [1]): 0.0801 ± 0.00113 nM | percent inhibition of microtubule polymerization [2]: 54% | Kd (P. capsici α, β-tubulin [3]): 93.9 ± 11.2 nM | Kd (H. sapiens α, β-tubulin): 256 ± 31.1 nM | IC50 [4]: 802 nM | IC50 [5]: 2430 nM | microtubule morphology by TEM (P. capsici microtubules; 1 μM peptide): Amorphous morphology of microtubules occurred predominantly | microtubule formation by TEM (P. capsici microtubules; Ten micromolar peptide): completely inhibited the formation of microtubules

NPIGDNYSGTGL [β_P2]
Kd (P. capsici α, β-tubulin [1]): 0.0371 ± 0.00141 nM | percent inhibition of microtubule polymerization [2]: 2%

SNMKPSMEYSSR [α_P9, M13 phage clone displaying 12-mer […], selected against P. capsici α-tubulin]
Kd (P. capsici α, β-tubulin [1]): 0.273 ± 0.00179 nM

NAITLLSPPLHK [α_P5]
Kd (P. capsici α, β-tubulin [1]): 0.0571 ± 0.00177 nM | percent inhibition of microtubule polymerization [2]: 5% and 4%

Reference: publication PMC6600545, “Novel Peptide-Based Inhibitors for Microtubule Polymerization in Phytophthora capsici” (International Journal of Molecular Sciences, 2019)
